Data reported in ChEMBL document CHEMBL1201862, “PubChem BioAssay data set” (2004).
Calls of active or inactive are those of the source.

Experiments:
[1] = DRD fibroblast viability loss – cell-based, non-viral oncogenic, luminescence, dose response (AID 1934); assay type: functional; conditions: Homo sapiens
BJ [2] = assay: BJ-TERT fibroblast viability loss – cell-based, RAS-independent, luminescence, dose response (AID 1933); assay type: functional; conditions: Homo sapiens
BJ [3] = assay: BJ-TERT-LT-ST fibroblast viability loss – cell-based, RAS-independent, luminescence, dose response (AID 1935); assay type: functional; conditions: Homo sapiens;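 note: BJ fibroblasts immortalized with TERT plus LT and ST oncogenes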
[4] = molecular target: Induced myeloid leukemia cell differentiation protein Mcl-1 (Homo sapiens, UniProt Q07820); assay type: functional
Chain of Induced myeloid leukemia cell differentiation protein Mcl-1 (Q07820 whole entry): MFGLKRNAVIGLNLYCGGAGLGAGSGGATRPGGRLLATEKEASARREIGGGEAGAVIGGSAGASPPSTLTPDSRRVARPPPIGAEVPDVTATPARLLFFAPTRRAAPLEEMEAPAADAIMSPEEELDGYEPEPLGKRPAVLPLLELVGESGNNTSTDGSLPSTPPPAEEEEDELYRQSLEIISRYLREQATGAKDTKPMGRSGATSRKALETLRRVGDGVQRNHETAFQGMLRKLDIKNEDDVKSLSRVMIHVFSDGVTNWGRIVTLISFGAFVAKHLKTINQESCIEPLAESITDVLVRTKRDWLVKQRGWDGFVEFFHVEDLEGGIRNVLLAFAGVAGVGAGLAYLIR

BJ [5] = assay: cells; assay type: functional, cell-based; conditions: Homo sapiens
BJ [6] = assay: growth inhibition of engineered Ras-driven BJ cells – cell-based, alamar blue fluorescence, cherrypicked samples, dose response (AID 2631); assay type: functional; conditions: Homo sapiens;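 note: confirmatory dose-response assay in RAS-dependent BJ fibroblasts engineered with TERT, LT and ST, with cytotoxicity read by fluorescence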
[7] = viability of PTEN-deleted HCT116 cells – cell-based, HCT116 PTEN knockout, dose response (AID 1047); assay type: functional;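 note: HCT116 colon tumor cells with PTEN knocked out; cells exposed to compound for 60 hours before readout; potency for loss of cell viability measured by luminescence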
[8] = viability of HCT116 lacking mutant beta-catenin – cell-based, human colon tumor, dose response (AID 1045); assay type: functional;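 note: HCT116 colon tumor cells with beta catenin knocked out; cells exposed to compound for 60 hours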
[9] = viability loss in THP-1 monocytes – THP-1 cells, cytotoxicity control for Vif-APOBEC3G degradation inhibitor project, dose response (AID 1117359); assay type: functional; conditions: THP-1
[10] = molecular target: T1, Long-chain-fatty-acid--AMP ligase FadD28 (Mycobacterium tuberculosis, UniProt P9WQ59); assay: Fluorescence polarization aasay to screen for inhibitors that compete for the binding of FadD28 to a bisubstrate Measured in Biochemical System Using Plate Reader - 2147-01_Inhibitor_Dose_CherryPick_Activity.; assay type: functional, Mycobacterium tuberculosis H37Rv
T1 sequence (P9WQ59 whole entry): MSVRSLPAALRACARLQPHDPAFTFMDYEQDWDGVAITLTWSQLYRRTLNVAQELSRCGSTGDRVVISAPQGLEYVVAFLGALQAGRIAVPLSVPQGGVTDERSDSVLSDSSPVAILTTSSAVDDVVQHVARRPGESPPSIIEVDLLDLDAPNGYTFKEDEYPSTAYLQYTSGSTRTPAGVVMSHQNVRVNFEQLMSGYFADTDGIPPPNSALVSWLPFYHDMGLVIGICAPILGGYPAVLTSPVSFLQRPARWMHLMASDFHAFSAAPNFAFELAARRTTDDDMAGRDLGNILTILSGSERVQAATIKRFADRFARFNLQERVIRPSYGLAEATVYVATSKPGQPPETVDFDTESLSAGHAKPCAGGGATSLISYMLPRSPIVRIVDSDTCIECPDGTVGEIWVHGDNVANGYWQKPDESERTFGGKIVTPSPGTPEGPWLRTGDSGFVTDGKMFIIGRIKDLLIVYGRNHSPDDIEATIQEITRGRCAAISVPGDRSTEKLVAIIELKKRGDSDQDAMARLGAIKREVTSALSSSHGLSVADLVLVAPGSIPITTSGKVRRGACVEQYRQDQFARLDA

[11] = Luminescence Cell-Based Dose Retest to Confirm Inhibitors of Cancer Stem Cells. [Related pubchem assays (depositor defined):AID2717, AID2721]; assay type: functional; conditions: Homo sapiens
[12] = molecular target: T2, Carboxy-terminal domain RNA polymerase II polypeptide A small phosphatase 1 (Homo sapiens, UniProt Q9GZU7); assay: CTDSP1 inhibitors, concentration-response, biochemical, absorbance readout, ultra-high-throughput screen actives (AID 540297); assay type: functional
T2 sequence (Q9GZU7 whole entry): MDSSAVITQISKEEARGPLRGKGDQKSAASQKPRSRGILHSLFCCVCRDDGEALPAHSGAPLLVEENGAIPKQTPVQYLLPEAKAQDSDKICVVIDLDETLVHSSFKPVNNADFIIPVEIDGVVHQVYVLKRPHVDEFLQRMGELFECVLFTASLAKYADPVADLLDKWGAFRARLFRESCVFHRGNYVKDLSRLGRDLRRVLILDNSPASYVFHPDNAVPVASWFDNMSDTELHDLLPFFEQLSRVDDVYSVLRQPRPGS

Protein RecA = molecular target: T3, Protein RecA (Mycobacterium tuberculosis, UniProt P9WHJ3); assay: Fluorescence Cell-Free Homogeneous Dose Retest to Identify Inhibitors of RecA-Intein Splicing Activity. [Related pubchem assays (depositor defined):AID2097, AID2223, AID489010, AID492950]; assay type: functional
T3 sequence (P9WHJ3 whole entry): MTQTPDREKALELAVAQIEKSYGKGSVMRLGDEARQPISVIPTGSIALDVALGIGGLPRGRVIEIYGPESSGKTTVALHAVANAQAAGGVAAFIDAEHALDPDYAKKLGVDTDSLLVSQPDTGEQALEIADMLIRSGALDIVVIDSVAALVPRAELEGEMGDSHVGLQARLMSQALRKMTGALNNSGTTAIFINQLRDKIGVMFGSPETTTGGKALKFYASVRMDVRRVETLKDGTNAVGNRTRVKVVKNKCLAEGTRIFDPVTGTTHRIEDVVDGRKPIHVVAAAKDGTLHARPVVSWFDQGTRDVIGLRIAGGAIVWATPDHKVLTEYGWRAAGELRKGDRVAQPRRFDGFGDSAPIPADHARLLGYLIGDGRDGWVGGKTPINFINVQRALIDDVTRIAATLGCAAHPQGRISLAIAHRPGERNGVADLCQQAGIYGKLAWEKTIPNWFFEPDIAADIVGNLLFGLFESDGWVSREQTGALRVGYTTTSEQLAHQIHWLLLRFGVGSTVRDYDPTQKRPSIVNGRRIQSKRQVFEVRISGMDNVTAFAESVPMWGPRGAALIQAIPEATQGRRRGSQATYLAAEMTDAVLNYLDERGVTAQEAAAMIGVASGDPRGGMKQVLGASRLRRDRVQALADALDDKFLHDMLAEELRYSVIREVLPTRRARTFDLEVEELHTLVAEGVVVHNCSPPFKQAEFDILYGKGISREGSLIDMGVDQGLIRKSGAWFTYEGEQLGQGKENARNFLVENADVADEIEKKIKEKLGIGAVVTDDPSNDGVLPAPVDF

[13] = microbe, parasite or virus in culture; assay type: functional; conditions: Mycobacterium tuberculosis
[14] = molecular target: T4, Replicative DNA helicase DnaB (Mycobacterium tuberculosis, UniProt P9WMR3); assay: DnaB intein splicing inhibitors, dose response, biochemical, cell-free fluorescence (AID 449749); assay type: functional
T4 sequence (P9WMR3 whole entry): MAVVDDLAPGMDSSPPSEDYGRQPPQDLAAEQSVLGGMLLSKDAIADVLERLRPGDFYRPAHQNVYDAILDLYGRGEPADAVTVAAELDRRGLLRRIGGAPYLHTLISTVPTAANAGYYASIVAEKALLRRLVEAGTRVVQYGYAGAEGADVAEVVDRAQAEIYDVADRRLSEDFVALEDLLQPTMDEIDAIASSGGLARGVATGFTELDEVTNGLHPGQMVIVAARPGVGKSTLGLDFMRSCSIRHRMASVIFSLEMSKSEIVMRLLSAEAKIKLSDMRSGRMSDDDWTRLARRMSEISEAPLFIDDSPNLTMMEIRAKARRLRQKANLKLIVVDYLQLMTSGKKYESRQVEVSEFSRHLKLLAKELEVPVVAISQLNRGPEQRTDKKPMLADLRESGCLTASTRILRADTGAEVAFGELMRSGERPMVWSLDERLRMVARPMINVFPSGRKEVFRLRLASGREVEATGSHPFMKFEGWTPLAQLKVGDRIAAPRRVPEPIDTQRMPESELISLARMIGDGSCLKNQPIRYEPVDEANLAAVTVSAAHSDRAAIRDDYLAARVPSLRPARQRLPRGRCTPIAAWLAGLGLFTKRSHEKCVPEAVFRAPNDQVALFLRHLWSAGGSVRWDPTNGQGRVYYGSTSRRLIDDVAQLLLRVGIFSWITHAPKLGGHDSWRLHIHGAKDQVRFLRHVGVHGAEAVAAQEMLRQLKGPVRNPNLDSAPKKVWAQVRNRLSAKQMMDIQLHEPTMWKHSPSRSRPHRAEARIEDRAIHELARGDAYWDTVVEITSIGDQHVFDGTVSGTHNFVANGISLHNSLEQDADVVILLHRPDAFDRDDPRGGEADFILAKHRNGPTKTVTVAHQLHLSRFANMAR

[15] = blockers of CRF-binding protein–CRF-R2 complex – cell-based, uHTS hits, 384-well, dose response (AID 651639); assay type: functional, Homo sapiens; conditions: read-out: IC50_Mean
[16] = molecular target: T5, Corticotropin-releasing factor receptor 2/Corticotropin-releasing factor-binding protein (Homo sapiens, UniProt P24387+Q13324); assay: activators of CRF receptor 2 with binding protein – uHTS hits, confirmation (AID 602473); assay type: functional; conditions: read-out: EC50_Mean
T5 sequence (Q13324 whole entry): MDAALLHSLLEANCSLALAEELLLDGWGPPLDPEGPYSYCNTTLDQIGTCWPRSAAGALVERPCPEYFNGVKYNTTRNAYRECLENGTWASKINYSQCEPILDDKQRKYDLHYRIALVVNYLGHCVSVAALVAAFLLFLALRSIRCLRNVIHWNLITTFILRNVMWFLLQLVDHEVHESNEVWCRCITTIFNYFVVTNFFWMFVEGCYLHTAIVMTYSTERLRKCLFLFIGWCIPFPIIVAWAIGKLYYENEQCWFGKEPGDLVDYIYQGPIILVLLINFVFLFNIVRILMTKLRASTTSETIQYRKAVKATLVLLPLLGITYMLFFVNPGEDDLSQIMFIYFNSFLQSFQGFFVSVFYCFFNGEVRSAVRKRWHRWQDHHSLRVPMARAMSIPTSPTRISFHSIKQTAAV
T5 sequence (P24387 whole entry): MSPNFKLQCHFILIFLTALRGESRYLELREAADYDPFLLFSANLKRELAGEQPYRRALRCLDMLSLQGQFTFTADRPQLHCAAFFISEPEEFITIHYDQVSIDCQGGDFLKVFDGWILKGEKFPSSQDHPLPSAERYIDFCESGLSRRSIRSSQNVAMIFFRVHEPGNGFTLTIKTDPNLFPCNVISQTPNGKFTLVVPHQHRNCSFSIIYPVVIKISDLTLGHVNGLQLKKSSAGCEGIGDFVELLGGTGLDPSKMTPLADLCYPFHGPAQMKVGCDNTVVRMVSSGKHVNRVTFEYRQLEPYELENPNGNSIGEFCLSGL

[17] = molecular target: T5, Corticotropin-releasing factor receptor 2/Corticotropin-releasing factor-binding protein; assay: Dose Response confirmation of uHTS hits for small molecule antagonists of the CRF-binding protein and CRF-R2 receptor complex.; assay type: functional; conditions: read-out: IC50_Mean

Row | Compound | EC50 [1] | EC50 (BJ [2]) | EC50 (BJ [3]) | EC50 (BJ [5]) | EC50 (BJ [6]) | AC50 [10] | also measured
1 | CCOc1ccccc1Nc1nc(-c2sc(NC(=O)c3ccc([N+](=O)[O-])cc3)nc2C)cs1 | 7.92 µM (active) | 7.64 µM (active) | > 150 µM (inconclusive) | 12.7 µM (active) | > 133 µM (inactive) | – | IC50 [4]: 13.4 µM (active); EC50 [7]: 9.09 µM (active); EC50 [8]: 7.38 µM (active)
2 | COc1ccc(C)cc1Nc1c2c(nc3ccccc13)CCC2 | 7.71 µM (inconclusive) | 3.98 µM (inconclusive) | 1 µM (inconclusive) | 15.1 µM (inconclusive) | 0.174 µM (active) | – | CC50 [9]: 0.62 µM (active)
3 | CC1=NN(c2nc(-c3ccc(F)cc3)cs2)C(=O)C1 | – | – | – | – | – | 32 µM (inactive) | AC50 [11]: 7.23 µM (active)
4 | Cc1cccc(NC(=O)CN2C(=O)S/C(=C\c3ccc(O)c([N+](=O)[O-])c3)C2=O)c1 | – | – | – | – | – | 0.102 µM (active) | IC50 [12]: 3.43 µM (active)
5 | CCc1nnc(NS(=O)(=O)c2ccc(NC(=O)Nc3ccc(OC)cc3)cc2)s1 | – | – | – | – | – | 73.5 µM (active) | –
6 | Cc1ccc(C2CC(c3cccs3)=NN2C(=O)CCl)cc1 (stereo not given) | 5.15 µM (inconclusive) | 0.911 µM (active) | 6 µM (active) | 5.54 µM (active) | 2.87 µM (active) | – | EC50 (Protein RecA): 0.943 µM (active); CC50 [13]: 2.24 µM (active); AC50 [14]: 1.23 µM (active)
7 | Cc1nc(Sc2ccccc2)c(C#N)cc1-c1ccccc1 | – | – | – | – | – | – | IC50 [15]: > 20 µM (inactive); EC50 [16]: > 53 µM (inactive); IC50 [17]: < 0.368 µM (active)
